Patent US20250355005A1, “System and Method for Drug-Related Data Collection and Analysis” (FloBio LLC, priority 2023, published 2025)

System: blood sample (fibrin and platelet accumulation at collagen/tissue factor reaction zone)
Assay: microfluidic flow assay of a blood sample treated with different doses of DOAC, fibrin and platelet fluorescence signal at two temperatures
Format: cell-based, human
Conditions: increasing Rivaroxaban dose, in relation to the HBS control; 37° C. and 21° C.
Source text: Fibrin signal decreases as Rivaroxaban (R) dose is increased, in relation to the HBS control, as expected. As temperature increases, fibrin reactions initiate carlier, fibrin and platelet maximum rate of change increases (steeper slope), and fibrin and platelet signals are increased overall at the same point in time. The DOAC drug dose effect seen at higher temperatures follows similar dose behavior seen at lower temperatures. As illustrated in FIGS. 49A-49B, about a two-fold platelet signal increase at 400 s is seen, a substantial increase in maximum rate of change of fluorescence is also seen. […]
The device 100 can allow for up to eight unique conditions to be tested simultaneously. […] Estimated drug level can be determined through comparison to a fully attenuated sample and a fully reversed sample, in comparison to an IC50 drug response curve, linear regression, […] analysis or other statistical methodology. […]
The system can rely on direct fluorescence signals for analysis of the results at the collagen/tissue factor 112. Fresh whole blood (used within minutes of venous draw), AF594 fibrinogen label (fibrinogen from human plasma, Alexa Fluor™ 594 conjugate) and platelet MCA2588A488 label (mouse anti-human CD61, Alexa Fluor™ 488 conjugate) can be added to the device 100 and the direct fluorescence signals can be analyzed. […]

O=C(NC[C@H]1CN(c2ccc(N3CCOCC3=O)cc2)C(=O)O1)c1ccc(Cl)s1 [Rivaroxaban]
Fibrin signal: decreases
